Assay results taken from US20250064760A1, “INTRACANALICULAR INSERT COMPRISING A NON-STEROIDAL ANTI-INFLAMMATORY AGENT” (OCULAR THERAPEUTIX, INC., priority 2022, published 2025).
≈ marks a conversion by molar mass, not a printed value. Where “and” joins values, the source holds several entries; their conditions need not be identical. Identical values can stand only once.

Experiments:
Nepafenac solubility = assay type: physicochemical; conditions: aqueous buffer; PBS, pH 7.2 at 37° C.
Method: Nepafenac is a monocarboxylic acid amide that is amfenac in which the carboxylic acid group has been converted into the corresponding carboxamide. Nepafenac is yellow crystalline or powdery substance practically insoluble in water (14 mcg/mL). Nepafenac is soluble in organic solvents such as ethanol, DMSO, and dimethyl formamide (DMF). The solubility of nepafenac in ethanol is approximately 0.5 mg/mL and approximately 30 mg/ml in DMSO and DMF. An aqueous suspension at 0.1% gives an average pH of 6.75. The coefficient partition n-octanol/water is 128. […] Nepafenac is an achiral substance and there are no possible variations in the stereochemical configuration.
Nepafenac solubility testing in PBS, pH 7.2 at 37° C. is approximately 102 mcg/mL.

[1] = aqueous suspension at 0.1%; cited from earlier work
[2] = cited from earlier work
[3] = cited from earlier work; remark: listed apart in the source
[4] = target: T1, cyclooxygenase-2 (COX-2) enzyme (Homo sapiens, UniProt P35354); conditions: Walters et al., 2007; cited from earlier work
T1 sequence (P35354 18-604): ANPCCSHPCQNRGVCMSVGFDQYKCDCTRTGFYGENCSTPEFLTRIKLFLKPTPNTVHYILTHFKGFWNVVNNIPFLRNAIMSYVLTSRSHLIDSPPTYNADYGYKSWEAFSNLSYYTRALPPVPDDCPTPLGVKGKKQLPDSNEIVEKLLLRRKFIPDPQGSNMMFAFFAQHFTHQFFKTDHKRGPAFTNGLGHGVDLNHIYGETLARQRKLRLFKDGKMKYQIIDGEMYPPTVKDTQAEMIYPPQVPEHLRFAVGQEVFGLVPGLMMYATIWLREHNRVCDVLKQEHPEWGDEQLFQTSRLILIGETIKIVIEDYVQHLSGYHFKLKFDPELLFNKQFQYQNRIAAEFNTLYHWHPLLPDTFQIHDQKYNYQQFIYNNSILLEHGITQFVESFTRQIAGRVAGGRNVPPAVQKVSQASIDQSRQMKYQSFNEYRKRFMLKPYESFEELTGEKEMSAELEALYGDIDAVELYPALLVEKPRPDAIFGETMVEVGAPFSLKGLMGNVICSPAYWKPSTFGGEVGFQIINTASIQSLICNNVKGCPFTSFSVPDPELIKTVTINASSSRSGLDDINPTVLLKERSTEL

| solubility (Nepafenac solubility) | Compound | average pH of aqueous suspension [1] | solubility in DMF ([2]; DMF) | solubility in DMSO ([2]; DMSO) | solubility in ethanol ([2]; ethanol) | solubility in water ([2]; water) | coefficient partition n-octanol/water [3] | IC50 [4] |
| --- | --- | --- | --- | --- | --- | --- | --- | --- |
| ~102 µg/mL (≈ 401 µM) | NC(=O)Cc1cccc(C(=O)c2ccccc2)c1N [Nepafenac, 2-(2-amino-3-benzoylphenyl)acetamide] | 6.75 | approximately 30 mg/ml | approximately 30 mg/ml | approximately 0.5 mg/mL | 14 µg/mL (≈ 55.1 µM) | 128 | – |
| – | Nc1c(CC(=O)O)cccc1C(=O)c1ccccc1 [amfenac] | – | – | – | – | – | – | ~1.76 nM and 1.76 nM |
